The text below walks through data of ChEMBL document CHEMBL1671721, “Chemical validation of phosphodiesterase C as a chemotherapeutic target in Trypanosoma cruzi, the etiological agent of Chagas' disease” (Antimicrob Agents Chemother, 2010).

pIC50: −log10 of the molar value. Activity calls are given as the source filed them. No cut-off for these calls is given here. Bounds are passed on as bounds.

A short description of data set [1]: Cytotoxicity against rat L6E9 myoblasts upto 1 uM.
Data set [2] deals with T1, Cyclic nucleotide specific phosphodiesterase (Trypanosoma cruzi, UniProt Q53I59).
T1 sequence (Q53I59 whole entry): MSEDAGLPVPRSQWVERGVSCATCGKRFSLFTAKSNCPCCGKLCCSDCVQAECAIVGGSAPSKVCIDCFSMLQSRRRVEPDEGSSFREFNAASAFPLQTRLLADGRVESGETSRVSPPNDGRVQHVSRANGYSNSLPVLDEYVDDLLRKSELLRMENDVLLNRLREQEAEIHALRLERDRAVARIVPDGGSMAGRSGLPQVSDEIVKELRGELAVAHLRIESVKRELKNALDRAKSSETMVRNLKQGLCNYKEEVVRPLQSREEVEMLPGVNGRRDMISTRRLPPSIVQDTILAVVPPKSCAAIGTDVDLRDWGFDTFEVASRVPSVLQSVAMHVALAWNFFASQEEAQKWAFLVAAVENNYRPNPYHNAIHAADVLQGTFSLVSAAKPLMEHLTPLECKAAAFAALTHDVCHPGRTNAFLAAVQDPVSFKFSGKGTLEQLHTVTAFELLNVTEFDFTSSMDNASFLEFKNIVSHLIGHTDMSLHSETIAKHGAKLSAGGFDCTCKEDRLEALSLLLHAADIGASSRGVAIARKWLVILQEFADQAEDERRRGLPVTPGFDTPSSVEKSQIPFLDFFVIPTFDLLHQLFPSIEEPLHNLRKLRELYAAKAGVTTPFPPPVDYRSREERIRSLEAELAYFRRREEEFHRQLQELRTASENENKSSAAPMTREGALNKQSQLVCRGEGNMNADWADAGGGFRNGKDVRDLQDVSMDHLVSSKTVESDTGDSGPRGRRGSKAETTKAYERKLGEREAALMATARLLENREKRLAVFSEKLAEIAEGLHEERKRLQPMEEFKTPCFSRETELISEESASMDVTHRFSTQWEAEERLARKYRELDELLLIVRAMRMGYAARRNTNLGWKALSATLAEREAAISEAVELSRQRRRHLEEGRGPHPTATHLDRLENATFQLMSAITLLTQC
Nature of the data set: Inhibition of Trypanosoma cruzi Y PDEC after 30 mins.

Data set [3] is described as follows: Cytotoxicity against rat L6E9 myoblasts at 1 to 25 uM.
Another data set concerns the target Phosphodiesterase 4 (Homo sapiens, UniProt P27815+Q08499+Q07343+Q08493). Nature of the data set: Inhibition of human PDE4 after 30 mins. Type of data set: protein assay.
Data set [4] concerns the target T2, Cyclic nucleotide specific phosphodiesterase (Trypanosoma cruzi) (UniProt Q53I59).
T2 sequence (whole entry): T1 sequence (Q53I59 whole entry)
Nature of the data set: Inhibition of Trypanosoma cruzi Y PDEC assessed as cAMP accumulation at 90 uM after 1 to 5 mins by luminescence spectrophotometry. In general terms: Cyclic AMP is a second messenger, typically raised through Gs and lowered through Gi signalling.

Data set [5] has as its system Trypanosoma cruzi. Nature of the data set: Antimicrobial activity against Trypanosoma cruzi Y infected in rat L6E9 myoblasts assessed as inhibition of [5,6-3H]uracil incorporation after 3 days postinfection by scintillation counter. In kind it is functional, organism-based.
Data set [6] has as its target T2, Cyclic nucleotide specific phosphodiesterase (Trypanosoma cruzi). Briefly: Inhibition of Trypanosoma cruzi Y PDEC assessed as cAMP accumulation at 26 uM after 1 to 5 mins by luminescence spectrophotometry.
Data set [7] shares this target. Briefly: Inhibition of Trypanosoma cruzi Y PDEC assessed as cAMP accumulation at 43 uM after 1 to 5 mins by luminescence spectrophotometry.
The target is the same in data set [8]. Briefly: Inhibition of Trypanosoma cruzi Y PDEC assessed as cAMP accumulation at 4.5 to 45 uM after 1 to 5 mins by luminescence spectrophotometry.
Data set [9] has the same target. Briefly: Inhibition of Trypanosoma cruzi Y PDEC assessed as decrease in osmolarity preincubated with 8.7 uM compound measured after 10 mins by light scattering.
For data set [10] the target is unchanged. Briefly: Inhibition of Trypanosoma cruzi Y PDEC assessed as volume recovery preincubated with 8.7 uM compound measured after 10 mins by light scattering.
Data set [11] can be described thus: Cytotoxicity against rat L6E9 myoblasts at >25 uM.
The nature of data set [12]: Cytotoxicity against rat L6E9 myoblasts at >10 uM.
Data set [13] has as its system Trypanosoma cruzi. Nature of the data set: Antimicrobial activity against Trypanosoma cruzi infected in rat L6E9 myoblasts assessed as inhibition of [3H]uracil incorporation by giemsa staining. The note with it: L6E9, 3 h.
For data set [14], the system named is Trypanosoma cruzi. Briefly: Antimicrobial activity against Trypanosoma cruzi Y infected in L6E9 myoblasts assessed as inhibition of [3H]uracil incorporation at 1 uM after 3 hrs postinfection by scintillation counter. Also on record: scale not given: the % may be the effect or the level left. Type of data set: functional.
In data set [15] the test system is Trypanosoma cruzi. Briefly: Antimicrobial activity against Trypanosoma cruzi Y infected in L6E9 myoblasts assessed as inhibition of [3H]uracil incorporation at 25 uM after 3 hrs postinfection by scintillation counter. In kind it is functional. Also on record: scale not given: the % may be the effect or the level left.

As for `O=S(=O)(Cc1noc(-c2ccno2)n1)Cc1ccco1`, the Activity entry is “Toxic” in data set [1] and “Non-toxic” in data set [3]. Also, the pIC50 in data set [2] is 5.35.

With `CCCCC(=O)c1ccc(OC2CCOCC2)c(OC)c1`, the pIC50 in [2] is 5.46; with Trypanosoma cruzi [5], 5.28. Further, the IC50 at Phosphodiesterase 4 amounted to 71 µM. In addition, the inhibition entry in data set [4], in data set [6], in [7] and in data set [8] was “Active” in each case. Also, the Activity result in data set [3] is “Non-toxic”.

Turning to `CCCC(=O)c1ccc(OC2CCN(C(=O)OC(C)(C)C)CC2)c(OC)c1`, the inhibition result in data set [9] and in data set [10] was “inactive” throughout. Besides, the results for the pIC50 (in data set [2]; in the data set with Trypanosoma cruzi [5]) were 5.19 and 5.48, respectively. At Phosphodiesterase 4, this compound came in with an IC50 of 29 µM. In addition, the inhibition result in data set [4], in data set [6], in [7] and in data set [8] was “Active” in each case. Further, in data set [3], the Activity result was “Non-toxic”.

In data set [2], `CSc1noc(-c2ccc(S(=O)(=O)NCc3ccccc3)s2)c1C#N` had a pIC50 of 5.37. In addition, the Activity result in data set [3] was “Non-toxic”; in data set [11], “Toxic”.

Consider `CCCC(=O)c1ccc(OC(F)F)c(OC2CCOCC2)c1`, for which the pIC50 in data set [2] is 5.32; in the data set with Trypanosoma cruzi [5], 5.80. This compound registered an IC50 on Phosphodiesterase 4 of 0.35 µM. The inhibition result in data set [4], in data set [6], in data set [7] and in data set [8] was “Active” in each case. For the same compound, the Activity result in data set [3] is “Non-toxic”.

Turning to `O=S(=O)(Cc1noc(CSc2ccc(Cl)cc2)n1)c1ccccn1`, the figures for the Activity entry in data set [12] and in data set [3] were “Toxic” and “Non-toxic”, respectively. In data set [2], this compound had a negative logarithm of the IC50 (pIC50) below 5.00.

Turning to `CCOC(=O)c1csc(COc2ccc(C3SCCS3)cc2)n1`, the pIC50 in [2] is below 5.00. Besides, the results for the Activity entry in data set [3] and in data set [11] were “Non-toxic” and “Toxic”, respectively.

Consider `O=C(Cn1nnc(N2CCCC2)n1)N/N=C/c1ccncc1`, for which the Activity result is recorded as “Toxic” in [12] and “Non-toxic” in data set [3]. The same compound gave a pIC50 in [2] below 5.00.

As to `O=C(Nc1ccc(S(=O)(=O)N2CCCCC2)cc1)NC1CCCC1`, the Activity result in data set [1] was “Toxic”; in [3] it was “Non-toxic”. Also, in data set [2], the negative-log IC50 (pIC50) was below 5.00.

As to `CC1CS(=O)(=O)CCN1/N=C/c1ccc([N+](=O)[O-])o1` (stereo not given) [NIFURTIMOX], the pIC50 with Trypanosoma cruzi [13] was 5.55.

Take `CCOC(=O)Cc1csc(NC(=O)Nc2ccc(Cl)c(Cl)c2)n1`: the values for the Activity result in [1] and in [3] were “Toxic” and “Non-toxic”, respectively. The pIC50 in data set [2] is 5.44.

On to `CCCCC(=O)c1ccc(OC2CCOC2)c(OC)c1` (stereo not given), for which the values for the pIC50 (in data set [2]; with Trypanosoma cruzi [5]) were 5.29 and 5.74, respectively. For the same compound, the IC50 against Phosphodiesterase 4 amounted to 100 µM. In addition, the inhibition result in data set [4], in data set [6], in data set [7] and in data set [8] was “Active” throughout. Further, the Activity entry in [3] is listed as “Non-toxic”.

On to `O=C1c2ccccc2C(=O)N1Cc1csc(-c2cccs2)n1`, for which the negative logarithm of the IC50 (pIC50) in data set [2] was 5.39. The values for the Activity in the data set on Trypanosoma cruzi [14] and in the data set with Trypanosoma cruzi [15] were 51% and 98%, respectively.

With `O=C(Nc1csc2ccccc12)NC1Cc2ccccc2C1`, in [2], the pIC50 is below 5.00. Further, the Activity result in data set [3] was “Non-toxic”; in data set [11] it was “Toxic”.

Regarding `O=S(=O)(Cc1noc(-c2ccc(Cl)cc2)n1)c1ccccn1`, the figures for the Activity result in [1] and in data set [3] were “Toxic” and “Non-toxic”, respectively. Moreover, in [2], the pIC50 is 5.62.

Regarding `CCCC(=O)c1ccc(OC2CCOCC2)c(OC)c1`, the pIC50 (in [2]; with Trypanosoma cruzi [5]) was 5.40 each time. At Phosphodiesterase 4, this compound displayed an IC50 of 60 µM. Also, the Activity entry in data set [3] was “Non-toxic”.

With `O=C(Cn1ccnc1[N+](=O)[O-])NCc1ccccc1` [BENZNIDAZOLE], in the data set with Trypanosoma cruzi [13], the pIC50 was 5.43.

As a reminder, the pIC50 is the negative decadic logarithm of the IC50, by convention in mol/L. The term IC50 denotes the point on the concentration scale where inhibition reaches its midpoint.
